Test results from PubChem BioAssay AID1963843 (Molecular Pharmacology Branch, DTP, NCI, 2024).

Test system: 616215-338-R-J1-PDC complex spheroid viability
Assay: Anticancer human tumor 616215-338-R-J1-PDC patient-derived colon adenocarcinoma cell line growth inhibition [POLQ]
Conditions: for IC50: curve of first compound; for viability, T/C: stronger effect = lower value
In short: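 Complex spheroid viability model combining PDC tumour cells with endothelial (HUVEC) and MSC stromal cells. Novobiocin, ART-558 or RP6685 were tested singly and in combination with standard and investigational anticancer drugs. Each was titrated in half-log steps from near clinical Cmax, or from 10 microM where Cmax was unknown.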

[1] = second compound 0.0316 µM, first compound 0.0316 µM
[2] = second compound 0.0316 µM, first compound 0.1 µM
[3] = second compound 0.0316 µM, first compound 0.316 µM
[4] = second compound 0.0316 µM, first compound 1 µM
[5] = second compound 0.0316 µM, first compound 3.16 µM
[6] = second compound 0.0316 µM, first compound 10 µM
[7] = second compound 0.1 µM, first compound 0.0316 µM
[8] = second compound 0.1 µM, first compound 0.1 µM
[9] = second compound 0.1 µM, first compound 0.316 µM
[10] = second compound 0.1 µM, first compound 1 µM
[11] = second compound 0.1 µM, first compound 3.16 µM
[12] = second compound 0.1 µM, first compound 10 µM
[13] = second compound 0.316 µM, first compound 0.0316 µM
[14] = second compound 0.316 µM, first compound 0.1 µM
[15] = second compound 0.316 µM, first compound 0.316 µM
[16] = second compound 0.316 µM, first compound 1 µM
[17] = second compound 0.316 µM, first compound 3.16 µM
[18] = second compound 0.316 µM, first compound 10 µM
[19] = second compound 1 µM, first compound 0.0316 µM
[20] = second compound 1 µM, first compound 0.1 µM
[21] = second compound 1 µM, first compound 0.316 µM
[22] = second compound 1 µM, first compound 1 µM
[23] = second compound 1 µM, first compound 3.16 µM
[24] = second compound 1 µM, first compound 10 µM
[25] = second compound 3.16 µM, first compound 0.0316 µM
[26] = second compound 3.16 µM, first compound 0.1 µM
[27] = second compound 3.16 µM, first compound 0.316 µM
[28] = second compound 3.16 µM, first compound 1 µM
[29] = second compound 3.16 µM, first compound 3.16 µM
[30] = second compound 3.16 µM, first compound 10 µM
[31] = second compound 10 µM, first compound 0.0316 µM
[32] = second compound 10 µM, first compound 0.1 µM
[33] = second compound 10 µM, first compound 0.316 µM
[34] = second compound 10 µM, first compound 1 µM
[35] = second compound 10 µM, first compound 3.16 µM
[36] = second compound 10 µM, first compound 10 µM
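Also: spheroids exposed to compounds for one week before readout.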
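For viability, T/C in this document: percent viability relative to DMSO vehicle wells taken as 100%.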

SMILES: C=CC(=O)N1CCN(c2nc(=O)n(-c3c(C)ccnc3C(C)C)c3nc(-c4c(O)cccc4F)c(F)cc23)C(C)C1 (stereo not given) + Nc1ccc(C#CCN(C(=O)Cc2ncc(C(F)(F)F)cc2C(F)(F)F)c2ccc(F)cc2)nn1
- IC50 (second compound 0.0316 µM): > 10 µM
- IC50 (second compound 0.1 µM): > 10 µM
- IC50 (second compound 0.316 µM): > 10 µM
- IC50 (second compound 1 µM): > 10 µM
- IC50 (second compound 3.16 µM): > 10 µM
- IC50 (second compound 10 µM): > 10 µM
- viability, T/C [1]: 115%
- viability, T/C [2]: 99.3%
- viability, T/C [3]: 96.9%
- viability, T/C [4]: 99.6%
- viability, T/C [5]: 89.2%
- viability, T/C [6]: 66.8%
- viability, T/C [7]: 103%
- viability, T/C [8]: 101%
- viability, T/C [9]: 98.3%
- viability, T/C [10]: 90.6%
- viability, T/C [11]: 85.5%
- viability, T/C [12]: 63.5%
- viability, T/C [13]: 95.2%
- viability, T/C [14]: 96.7%
- viability, T/C [15]: 95.2%
- viability, T/C [16]: 91%
- viability, T/C [17]: 78.8%
- viability, T/C [18]: 62.2%
- viability, T/C [19]: 96.3%
- viability, T/C [20]: 95.2%
- viability, T/C [21]: 96.6%
- viability, T/C [22]: 94.6%
- viability, T/C [23]: 84.4%
- viability, T/C [24]: 67.3%
- viability, T/C [25]: 92.6%
- viability, T/C [26]: 89.2%
- viability, T/C [27]: 97.7%
- viability, T/C [28]: 93.8%
- viability, T/C [29]: 85%
- viability, T/C [30]: 67%
- viability, T/C [31]: 88.2%
- viability, T/C [32]: 94.4%
- viability, T/C [33]: 95.2%
- viability, T/C [34]: 82.9%
- viability, T/C [35]: 87.7%
- viability, T/C [36]: 65.4%

SMILES: CC(C)n1c(=O)n(C)c2cnc3cc(F)c(-c4ccc(OCCCN5CCCCC5)nc4)cc3c21 + Nc1ccc(C#CCN(C(=O)Cc2ncc(C(F)(F)F)cc2C(F)(F)F)c2ccc(F)cc2)nn1
- IC50 (second compound 0.0316 µM): > 10 µM
- IC50 (second compound 0.1 µM): > 10 µM
- IC50 (second compound 0.316 µM): > 10 µM
- IC50 (second compound 1 µM): > 10 µM
- IC50 (second compound 3.16 µM): > 10 µM
- IC50 (second compound 10 µM): > 10 µM
- viability, T/C [1]: 95%
- viability, T/C [2]: 92.2%
- viability, T/C [3]: 103%
- viability, T/C [4]: 101%
- viability, T/C [5]: 111%
- viability, T/C [6]: 103%
- viability, T/C [7]: 93.2%
- viability, T/C [8]: 110%
- viability, T/C [9]: 110%
- viability, T/C [10]: 89.4%
- viability, T/C [11]: 103%
- viability, T/C [12]: 96.4%
- viability, T/C [13]: 96.8%
- viability, T/C [14]: 97.5%
- viability, T/C [15]: 99.5%
- viability, T/C [16]: 97.1%
- viability, T/C [17]: 97.7%
- viability, T/C [18]: 99.2%
- viability, T/C [19]: 107%
- viability, T/C [20]: 99.8%
- viability, T/C [21]: 83.1%
- viability, T/C [22]: 104%
- viability, T/C [23]: 97.4%
- viability, T/C [24]: 86.8%
- viability, T/C [25]: 112%
- viability, T/C [26]: 97.8%
- viability, T/C [27]: 84.7%
- viability, T/C [28]: 90.6%
- viability, T/C [29]: 117%
- viability, T/C [30]: 96.2%
- viability, T/C [31]: 99.5%
- viability, T/C [32]: 79.3%
- viability, T/C [33]: 103%
- viability, T/C [34]: 103%
- viability, T/C [35]: 76.9%
- viability, T/C [36]: 97.5%

SMILES: CC1COCCN1c1cc(-c2ccnn2C)c2ccnc(-c3ccn[nH]3)c2n1 (stereo not given) + Nc1ccc(C#CCN(C(=O)Cc2ncc(C(F)(F)F)cc2C(F)(F)F)c2ccc(F)cc2)nn1
- IC50 (second compound 0.0316 µM): 0.155 µM
- IC50 (second compound 0.1 µM): 0.165 µM
- IC50 (second compound 0.316 µM): 0.19 µM
- IC50 (second compound 1 µM): 0.115 µM
- IC50 (second compound 3.16 µM): 0.192 µM
- IC50 (second compound 10 µM): 0.154 µM
- viability, T/C [1]: 86%
- viability, T/C [2]: 56.8%
- viability, T/C [3]: 38.9%
- viability, T/C [4]: 31.7%
- viability, T/C [5]: 25.9%
- viability, T/C [6]: 27.4%
- viability, T/C [7]: 93.8%
- viability, T/C [8]: 60.6%
- viability, T/C [9]: 34.7%
- viability, T/C [10]: 29.8%
- viability, T/C [11]: 24.5%
- viability, T/C [12]: 19.4%
- viability, T/C [13]: 102%
- viability, T/C [14]: 67.4%
- viability, T/C [15]: 35.2%
- viability, T/C [16]: 26.8%
- viability, T/C [17]: 22.4%
- viability, T/C [18]: 18.9%
- viability, T/C [19]: 101%
- viability, T/C [20]: 52.9%
- viability, T/C [21]: 29%
- viability, T/C [22]: 26.8%
- viability, T/C [23]: 21.6%
- viability, T/C [24]: 23.1%
- viability, T/C [25]: 96.7%
- viability, T/C [26]: 59.5%
- viability, T/C [27]: 45.8%
- viability, T/C [28]: 24.8%
- viability, T/C [29]: 23.6%
- viability, T/C [30]: 18.7%
- viability, T/C [31]: 104%
- viability, T/C [32]: 56.4%
- viability, T/C [33]: 40.1%
- viability, T/C [34]: 25.1%
- viability, T/C [35]: 20.1%
- viability, T/C [36]: 22.2%

SMILES: CCc1cc2c(N3CCc4c(cc(Cn5ccnc5)cc4-c4cn(C)nc4C(F)(F)F)C3=O)ccnc2c(OC)n1 + Nc1ccc(C#CCN(C(=O)Cc2ncc(C(F)(F)F)cc2C(F)(F)F)c2ccc(F)cc2)nn1
- IC50 (second compound 0.0316 µM): > 10 µM
- IC50 (second compound 0.1 µM): 6.52 µM
- IC50 (second compound 0.316 µM): 5.19 µM
- IC50 (second compound 1 µM): 3.07 µM
- IC50 (second compound 3.16 µM): 4.4 µM
- IC50 (second compound 10 µM): 2.69 µM
- viability, T/C [1]: 118%
- viability, T/C [2]: 111%
- viability, T/C [3]: 95.6%
- viability, T/C [4]: 56.6%
- viability, T/C [5]: 54.1%
- viability, T/C [6]: 49.1%
- viability, T/C [7]: 117%
- viability, T/C [8]: 120%
- viability, T/C [9]: 88.8%
- viability, T/C [10]: 66.8%
- viability, T/C [11]: 55.8%
- viability, T/C [12]: 45.4%
- viability, T/C [13]: 121%
- viability, T/C [14]: 113%
- viability, T/C [15]: 98.9%
- viability, T/C [16]: 64.7%
- viability, T/C [17]: 53.6%
- viability, T/C [18]: 46.9%
- viability, T/C [19]: 111%
- viability, T/C [20]: 107%
- viability, T/C [21]: 94.9%
- viability, T/C [22]: 56.2%
- viability, T/C [23]: 63.8%
- viability, T/C [24]: 37.3%
- viability, T/C [25]: 115%
- viability, T/C [26]: 110%
- viability, T/C [27]: 98%
- viability, T/C [28]: 70.8%
- viability, T/C [29]: 56.4%
- viability, T/C [30]: 40.4%
- viability, T/C [31]: 100%
- viability, T/C [32]: 104%
- viability, T/C [33]: 95.3%
- viability, T/C [34]: 68.4%
- viability, T/C [35]: 48.6%
- viability, T/C [36]: 40.4%

SMILES: COc1ccc([C@@H](O)c2cc(-c3ncnc4cc(N5CCOCC5)ccc34)c(F)cc2Cl)nn1 + Nc1ccc(C#CCN(C(=O)Cc2ncc(C(F)(F)F)cc2C(F)(F)F)c2ccc(F)cc2)nn1
- IC50 (second compound 0.0316 µM): > 10 µM
- IC50 (second compound 0.1 µM): 9.54 µM
- IC50 (second compound 0.316 µM): > 10 µM
- IC50 (second compound 1 µM): > 10 µM
- IC50 (second compound 3.16 µM): > 10 µM
- IC50 (second compound 10 µM): 4.73 µM
- viability, T/C [1]: 90.8%
- viability, T/C [2]: 106%
- viability, T/C [3]: 96%
- viability, T/C [4]: 93%
- viability, T/C [5]: 95.8%
- viability, T/C [6]: 61.9%
- viability, T/C [7]: 90.6%
- viability, T/C [8]: 115%
- viability, T/C [9]: 106%
- viability, T/C [10]: 94%
- viability, T/C [11]: 92.3%
- viability, T/C [12]: 47.7%
- viability, T/C [13]: 97.4%
- viability, T/C [14]: 92.1%
- viability, T/C [15]: 96.9%
- viability, T/C [16]: 107%
- viability, T/C [17]: 90.3%
- viability, T/C [18]: 52.7%
- viability, T/C [19]: 107%
- viability, T/C [20]: 118%
- viability, T/C [21]: 94.5%
- viability, T/C [22]: 87.2%
- viability, T/C [23]: 94.4%
- viability, T/C [24]: 49.8%
- viability, T/C [25]: 113%
- viability, T/C [26]: 109%
- viability, T/C [27]: 93.7%
- viability, T/C [28]: 85.7%
- viability, T/C [29]: 77.7%
- viability, T/C [30]: 47.9%
- viability, T/C [31]: 103%
- viability, T/C [32]: 99.9%
- viability, T/C [33]: 88.7%
- viability, T/C [34]: 76.5%
- viability, T/C [35]: 45.8%
- viability, T/C [36]: 50%
